According to paper PMC9571290, “Preliminary Structure–Activity Relationship Study of the MMV Pathogen Box Compound MMV675968 (2,4-Diaminoquinazoline) Unveils Novel Inhibitors of Trypanosoma brucei brucei” (Molecules, 2022):
Like-named read-outs stand apart in the source and are kept apart here.

What was measured:
[1] = test system: bloodstream forms of Trypanosoma brucei brucei; assay: resazurin-based antitrypanosomal inhibition assay; assay type: cell-based; conditions: for pIC50 T. b. b.: Table 3
Procedure: Parasites were axenically cultivated in sterile vented flasks containing complete Hirumi’s modified Iscove’s medium 9 (HMI-9) [500 mL IMDM (Iscove’s modified Dulbecco’s medium) (Gibco, Waltham, MA, USA) supplemented with 10% (v/v) heat-inactivated fetal bovine serum (HIFBS) (Sigma Aldrich), 10% (v/v) serum plus (Sigma Aldrich), HMI-9 supplement (1 mM hypoxanthine, 0.16 mM thymidine, 50 µM bathocuproine disulfonic acid, 1.5 mM cysteine, 1.25 Mm pyruvic acid, 0.2 mM 2-mercaptoethanol (Sigma Aldrich)), and 1% (v/v) penicillin–streptomycin (Sigma Aldrich) and incubated at 37 °C in a 5% CO2 atmosphere.
The in vitro inhibitory potency of the 400 MMVPB compounds against bloodstream forms of Trypanosoma brucei brucei was evaluated using the resazurin-based inhibition assay as previously described. Briefly, parasites at their mid-logarithmic growth phase were counted, and the cell density was adjusted with fresh complete HMI-9 medium to 2 × 10^5 trypanosomes per mL. Then, 90 µL of parasite suspension was then distributed into the wells of 96-well flat-bottomed plates containing 10 µL of compounds for a final test concentration of 10 µM. […] Each assay plate was set up in duplicate and repeated two times. The percent parasite inhibition was determined for each compound based on fluorescence readouts relative to the mean fluorescence of negative control wells.
y = 100/[1+ 10^(logIC50/99-x)H], where H is the hill coefficient or slope factor [60].

Vero cells = assay: cytotoxicity against Vero cells (resazurin viability assay); conditions: read-out: CC50 Vero; Table 3
Procedure: The resulting pellet was resuspended and counted in a Neubauer chamber in the presence of trypan blue to exclude nonviable cells colored in blue. Once the cell load was estimated, they were either used for the next passage in a new flask or processed for the cytotoxicity assay.
Briefly, Vero cells at a density of 10^4 cells per well were plated in 100 µL of complete DMEM and incubated overnight to allow cell attachment. Plates were then controlled under an inverted fluorescence microscope (Lumascope LS520) to ensure adherence, sterility and cell integrity. Thereafter, culture medium from each well was carefully emptied, and plates were filled with 90 µL of fresh complete medium followed by the addition of 10 µL of serial 5-fold dilutions of compound solutions. […] Fluorescence was then read using a Magelan Infinite M200 fluorescence multiwell plate reader (Tecan) with excitation and emission wavelengths of 530 and 590 nm, respectively. The percentage of cell viability was calculated from readouts, and the median cytotoxic concentration (CC50) for each compound was deduced from concentration–response curves using GraphPad Prism 8.0 software as described above. Selectivity indexes were then determined for each test substance as follows: SI = CC50(Vero cells)/IC50(T. brucei brucei).

[2] = Table 3, MMVPB compounds with known potency against other diseases, read-out: IC50 ± SD T. b. b.

| Structure (SMILES) | IC50 ([1]; Trypanosoma brucei, Table 1, reference drugs included in MMVPB, read-out: IC50 ± SD T. b. b.) | IC50 ([1]; Trypanosoma brucei, Table 1, negative log of IC50 in molar, read-out: pIC50 T. b. b. (converted)) | IC50 [1, 2] | pIC50 T. b. b. ([1]; negative log of IC50 in molar) | CC50 (Vero cells) |
| --- | --- | --- | --- | --- | --- |
| COc1cc(NC(C)CCCN)c2ncccc2c1 (stereo not drawn) [MMV000023, Primaquine, reference compound] | 8.4 ± 0.01 µM | 8.51 µM |  |  |  |
| CN(C)c1cc(NC(=O)Nc2ccccc2)c2ccccc2n1 [MMV006901] |  |  | 8.45 ± 0.05 µM | 5.07 | 14.6 ± 0.02 µM |
| COc1cc(-c2cc(-c3ccc(S(C)(=O)=O)cc3)cnc2N)ccc1O [MMV010576] |  |  | 1.5 ± 0.3 µM | 5.82 | > 100 µM |
| COc1ccc(CCN2CCC(NCc3cccc(N(C)C)c3)CC2)cc1 [MMV011511] |  |  | 8.94 ± 0.7 µM | 5.05 | > 100 µM |
| Cc1cc(Nc2ccncc2)n2nc(C)c(-c3ccccc3Cl)c2n1 [MMV016136] |  |  | 8.61 ± 0.3 µM | 5.06 |  |
| COc1ccc(-c2cncc3ccc(C(=O)NCCCn4ccnc4)nc23)cc1 [MMV020670] |  |  | 1.9 ± 0.02 µM | 5.72 |  |
| CN1CCC(NCc2cccc(-c3ccc(S(=O)(=O)NCc4ccccc4)cc3)c2)CC1 [MMV022029] |  |  | 1.7 ± 0.7 µM | 5.76 | 13.1 ± 0.2 µM |
| O=C(Nc1ccc(N2CCNCC2)cc1)c1ccn2ncc(-c3cccc(Cl)c3)c2n1 [MMV022478] |  |  | 1.7 ± 0.01 µM | 5.76 | 11.42 ± 0.07 µM |
| Nc1nccc2ccc(-c3ccc4nccn4c3)cc12 [MMV023233] |  |  | 8.43 ± 0.06 µM | 5.07 | 29.8 ± 0.7 µM |
| c1cncc(NCc2ccc(-c3cc4ccncc4cc3OC3CCNCC3)s2)c1 [MMV023969] |  |  | 8.09 ± 0.3 µM | 5.09 | 26.3 ± 0.4 µM |
| O=C(Nc1ccccc1)c1ccc(-c2cc3ccncc3cc2OC2CCNCC2)s1 [MMV024035] |  |  | 1.8 ± 0.1 µM | 5.74 | 35.75 ± 0.08 µM |
| Cc1ccc2[nH]c(C3CCCNC3)c(-c3ccncc3)c2c1 (stereo not drawn) [MMV024311] |  |  | 9.78 ± 0.2 µM | 5.00 |  |
| O=C(Nc1ccc(N2CCNCC2)nc1)c1oc(-c2ccccc2)nc1C(F)(F)F [MMV024937] |  |  | 1.4 ± 0.5 µM | 5.85 | 14.6 ± 0.6 µM |
| OCCc1ccc(Nc2nccc(-c3nnc4ccccn34)n2)cc1 [MMV028694] |  |  | 1.8 ± 0.1 µM | 5.74 | 10.36 ± 0.1 µM |
| CC(=O)N1CCc2cc3nc(C)cc(C)c3cc21 [MMV054312] |  |  | 1.29 ± 0.42 µM | 5.88 | > 100 µM |
| Cc1cc(C)nc(-n2nc(C)cc2Nc2ccccc2)n1 [MMV062221] |  |  | 1.7 ± 0.6 µM | 5.76 |  |
| O=C(C(Cc1c[nH]c2ccccc12)NS(=O)(=O)c1ccc(Cl)cc1)N1CCCCC1 (stereo not drawn) [MMV085210] |  |  | 0.9 ± 0.1 µM |  | > 100 µM |
| CCOC(=O)c1c(NC(=O)c2c(F)c(F)c(F)c(F)c2F)sc(C(N)=O)c1C [MMV153413] |  |  | 1.7 ± 0.1 µM | 5.76 | > 100 µM |
| CC(C)(C)c1cnc(NC(=O)c2ccccc2O)s1 [MMV495543] |  |  | 0.7 ± 0.25 µM |  |  |
| Brc1cncc(-c2cc(NCCCn3ccnc3)nc(-c3ccccc3)n2)c1 [MMV661713] |  |  | 1.9 ± 0.02 µM | 5.72 | > 100 µM |
| O=C(NCCN1CCCC1)c1cc(NCCCCN2CCC(F)(F)CC2)nc2ccc(Cl)cc12 [MMV667494] |  |  | 1.3 ± 0.5 µM | 5.88 | > 100 µM |
| COc1ccc(N(CCc2cccc(C)n2)C(=O)C2CCCCC2)cc1 [MMV675996] |  |  | 0.8 ± 0.02 µM |  |  |
| CC(Oc1ccccc1)C(=O)Nc1nc(-c2ccccn2)cs1 (stereo not drawn) [MMV676411] |  |  | 9.44 ± 0.09 µM | 5.02 |  |
| O=C(Nc1nc(-c2ccccn2)cs1)c1cncn1-c1ccccc1 [MMV676512] |  |  | 1.9 ± 0.07 µM | 5.72 |  |
| NC(=O)c1cc(-c2ccsc2)ccc1OCCOc1ccccc1 [MMV687138] |  |  | 0.5 ± 0.01 µM |  | > 100 µM |
| Nc1nc2cc(-c3cncc(Oc4ccc(F)cc4)c3)ccc2[nH]1 [MMV687248] |  |  | 0.5 ± 0.07 µM |  | > 100 µM |
| CN1CCC(c2cc(-c3ccncc3)c(-c3ccc(F)cc3)[nH]2)CC1 [MMV688703] |  |  | 3.18 ± 1.3 µM | 5.49 |  |
